Paper PMC11505038, “Kalata B1 Enhances Temozolomide Toxicity to Glioblastoma Cells” (Biomedicines, 2024)
Where two headings read alike, the source gives them in different places.

Key:
[1] = test system: U-87 MG human glioblastoma cells; test: cells
Protocol: (§1) SH-SY5Y human neuroblastoma cells (population doubling (PD) 20−24), T-98G, and U-87 MG human glioblastoma cells were removed from cryogenic storage, thawed rapidly in a water bath (37 °C) and reconstituted in 75 cm^2 flasks. For SH-SY5Y, the following media were used: Dulbecco’s modified Eagle’s medium/Nutrient F12 Ham (Sigma-Aldrich, Cat. No. D8437) containing 10% heat-inactivated fetal bovine serum, 4 mM L-glutamine, 100 U/mL penicillin, and 100 μg/mL streptomycin. For U-87 MG and T-98G Eagle’s minimal essential medium (ATCC: The Global Bioresource Center, Cat. No. ATCC 30-2003), containing 10% heat-inactivated fetal bovine serum, 4 mM L-glutamine, 100 U/mL penicillin, and 100 μg/mL streptomycin were used.
(§2) Cells were incubated at 37 °C in a humidified atmosphere of 5% CO2 and 95% air until recovered and ready for passaging (approximately 4 days). At between 80% and 90% confluence, the cells were trypsinized with warm (37 °C) sterile 0.5% Trypsin-EDTA (Thermo Fisher, Cat. No. 15400054) and passaged into 175 cm^2 flasks, where they were left to multiply until they reached 80−90% confluence. To plate cells: cultures were trypsinized, resuspended in 20 mL sterile PBS, counted using a cell counter (Olympus cell counter model R1), and plated in 96-well plates at an optimal density of 6000 cells/well in the designated culture media. The cells were left to adhere overnight before treatment the following day, when the culture medium was removed and replaced with the treatment medium. All incubations were conducted in triplicate wells and repeated at least three times (n = 3).
(§3) To calculate TMZ IC50 values in each cell line, TMZ was dissolved in DMSO at a stock concentration of 103 mM, which was then diluted into culture medium on the day of use, with the DMSO final concentration always less than 0.1%. The following concentrations of TMZ were used in the experiments: 0.5, 5, 50, 500, 2500, 5000 μM. The media were sterilized for each treatment media with a 0.22 μm filter before they were added to cell cultures. To determine the IC50 values for each cyclotide in each cell type, cyclotides were dissolved into 10% DMSO and then dilutions used to screen cyclotides with a final DMSO concentration of less than 0.1% The following concentrations of cyclotides were used: 0.1, 1, 5, 10 μM. For co-exposure experiments, a simultaneous exposure of cyclotide and TMZ at each respective dose was added to cell cultures (100 μL final volume per well).
(§4) In accordance with the methods developed by Mosmann and colleagues, the MTT assay was conducted using the Roche cell proliferation kit (Cat. No. 11465007001). Briefly, cells that are active can cleave MTT. The MTT is originally a yellow tetrazolium salt that undergoes a colorimetric change to purple formazan crystals, and the change in absorbance can be measured as an indicator of cell viability/proliferation. For these experiments, cells were plated into 96-well flat-bottom plates, as described in the cell culture above. […] To align with our previous work, experiments were conducted with a 72 h time frame for cytotoxicity evaluation.
(§5) After a 72 h incubation period, plates were removed from the incubator and 10 µL of MTT was added to each well. The plates were returned to the incubator for an additional 4 h, after which 100 µL of a solubilization solution was added to each well. The plates were returned to incubation overnight, and the next day absorbances were read at 570 nm on a Molecular Devices FlexStation 3 using SoftMax Pro Microplate Data Acquisition and Analysis Software (version 7.0.2).

[2] = test system: T-98G human glioblastoma cells; test: cells; settings: Homo sapiens, T98G, 72 h, read-out: IC50 (μM) ± S.D.
Protocol: as §1, §2, §3, §4, §5

[3] = test system: TMZ-resistant cell line T-98G; settings: ref Lee 31, read-out: Range of TMZ IC50 values summarized in the literature; cited from earlier work
Source text: Symptoms of GBM include seizures, headaches, nausea, and memory loss, and the side effects of TMZ can not only intensify headaches and nausea but also include diarrhea, constipation, loss of appetite, and sores in the mouth and throat. TMZ is an oral DNA alkylating agent that induces cell cycle arrest at G2/M, and its cytotoxicity is mediated by the addition of methyl groups at N^7 and O^6 sites on guanines and the […] in genomic DNA. A thymine instead of a cytosine is inserted during the alkylation of the O^6 site on guanine, which can cause cell death during DNA replication. ...

U-87 MG cells = test: Phase contrast microscopy of U-87 MG cultures; assay type: cell-based, human; settings: 72 h, 150 µM TMZ alone or 0.5 µM synthetic Kalata B1 alone, 20× phase contrast
[4] = test system: SH-SY5Y human neuroblastoma cells; settings: MTT, 72 h, previously published data; cited from earlier work
Protocol: (§6) Table 4 Toxicity and IC50 values of five cyclotides and TMZ in SH-SY5Y, U-87 MG, and T-98G cell cultures. | column: IC50 (μM) ± S.D. || Figure 5 Effect of natural and synthetic Kalata B1 on cell viability in SH-SY5Y, U-87MG, and T-98G cells cultures. The IC50 values for the cyclotides were determined using MTT assay after incubation with cells at increasing concentrations (0.1, 1, 5, and 10 μM) as compared to the control. Panel (A): SH-SY5Y and U-87 MG cells, and panel (B) T-98G and U-87 MG cells. Cultures (6000 cells per well in a 96-well plate), were treated with the cyclotide indicated, for 72 h, then MTT measured. Cell viability was calculated as a percentage of control cultures. IC50 values were calculated using the Best ... || To evaluate the cytotoxicity of plant-derived Kalata B1 and synthetic Kalata B1, MTT assays were performed with T-98G, U-87 MG, and SH-SY5Y cell cultures.

[5] = test system: U-87 MG human glioblastoma cells; settings: MTT, 72 h, previously published data; cited from earlier work
Protocol: as §6, with “S.D. || The IC50 values of natural and synthetic cyclotides, as well as TMZ, are provided in Table 4. […] The IC50 values were calculated using nonlinear regression analysis with dose-dependent inhibition and an inhibitor vs. no ...” for “S.D.”, “(+ 4 further places)” for “To evaluate the cytotoxicity of plant-derived Kalata B1 and synthetic Kalata B1, MTT assays were performed with T-98G, U-87 MG, and SH-SY5Y cell cultures.”

Structure (SMILES): Cn1nnc2c(C(N)=O)ncn2c1=O [TMZ, temozolomide]
- Cell death in MTT cell viability assay [1]: less than 15%
- IC50 ([1]; Homo sapiens, U-87 MG, 72 h, read-out: IC50 (μM) ± S.D.): 1617 ± 5.56 µM
- IC50 [2]: 1160 ± 5.31 µM
- IC50 [3]: 250 to 1580 µM
- Morphological changes versus control cultures, single agent (U-87 MG cells): little differences
- IC50 [4]: 393 ± 4.5 µM
- IC50 [5]: 2898 ± 6 µM
